From patent US7153863B2, “Therapeutic compounds based on pyrazolopyridline derivatives” (SmithKline Beecham Corporation, priority 2002, dated 2006) come the findings set out here.

Bounds are passed on as bounds.

The assay relates to HSV-1. In words: HSV-1 infection of Vero 76 cells, HSV DNA hybridization capture assay. Conditions: Human alphaherpesvirus 1; HSV-1 (MOI=0.001) in Vero 76 cells, 40–48 hours at 37° C., viral DNA by hybridization/chemiluminescence. In kind it is cell-based, herpes simplex virus 1. How it is done: Vero 76 cells were maintained in MEM with Earle's salts, L-glutamine, 8% FBS (Hyclone, A-1111-L) and 100 units/mL Penicillin-100 μg/mL Streptomycin. For assay conditions, FBS was reduced to 2%. Cells are seeded into 96-well tissue culture plates at a density of 5×10^4 cells/well after being incubated for 45 min at 37° C. in the presence of HSV-1 or HSV-2 (MOI=0.001). Test compounds are added to the wells and the plates are incubated at 37° C. for 40–48 hours. Cell lysates are prepared as follows: media was removed and replaced with 150 μL/well 0.2 N NaOH with 1% Igepal CA 630 or NP-40. Plates were incubated up to 14 days at room temperature in a humidified chamber to prevent evaporation.
For the detection probe, a gel-purified, digoxigenin-labeled, […] PCR fragment of the HSV UL-15 sequence was utilized. PCR conditions included 0.5 μM primers, 180 μM dTP, 20 μM dUTP-digoxigenin (Boehringer Mannheim 1558706), 200 μM each of dATP, dCTP, and dGTP, 1×PCR Buffer II (Perkin Elmer), 2.5 mM MgCl2, 0.025 units/μL of AmpliTaq Gold polymerase (Perkin Elmer), and 5 ng of gel-purified HSV DNA per 100 μL Extension conditions were 10 min at 95° C., followed by 30 cycles of 95° C. for 1 min, 55° C. for 30 sec, and 72° C. for 2 min. The amplification was completed with a 10-min incubation at 72° C. Primers were selected to amplify a 728 bp probe spanning a section of the HSV1 UL15 open reading frame (nucleotides 249–977). Single-stranded transcripts were purified with Promega M13 Wizard kits. The final product was mixed 1:1 with a mixture of 6 M GuSCN, 100 mM EDTA and 200 μg/mL herring sperm DNA and stored at 4° C.
The capture DNA plasmid (HSV UL13 region in pUC) was linearized by cutting with Xba I, denatured for 15 min at 95° C. and diluted immediately into Reacti-Bind DNA Coating Solution (Pierce, 17250, diluted 1:1 with TE buffer, pH 8) at 1 ng/μL 75 μL/well were added to Corning (#3922 or 9690) white 96-well plates and incubated at room temperature for at least 4 hrs before washing twice with 300 μL/well 0.2×SSC/0.05% Tween-20 (SSC/T buffer). The plates were then incubated overnight at room temperature with 150 μL/well 0.2 N NaOH, 1% IGEPAL and 10 μg/mL herring sperm DNA.
Twenty-seven (27) μL of cell lysate was combined with 45 μL of hybridization solution (final concentration: 3M GuSCN, 50 mM EDTA, 100 μg/ml salmon sperm DNA, 5× Denhardt's solution, 0.25×APE, and 5 ng of the digoxigenin-labeled detection probe). APE is 1.5 M NH4-acetate, 0.15 M ammonium phosphate monobasic, and 5 mM EDTA adjusted to pH 6.0. Mineral oil (50 μL) was added to prevent evaporation. The hybridization plates were incubated at 95° C. for 10 minutes to denature the DNA, then incubated at 42° C. overnight. The wells were washed 6× with 300 μL/well SSC/T buffer then incubated with 75 μL/well anti-digoxigenin-HRP-conjugated antibody (Boehringer Mannheim 1207733, 1:5000 in TE) for 30 min at room temperature. The wells were washed 6× with 300 μL/well with PBS/0.05% Tween-20 before 75 μL/well SuperSignal LBA substrate (Pierce) was added. The plates were incubated at room temperature for 30 minutes and chemiluminescence was measured in a Wallac Victor reader.
The following results were obtained for HSV-1.
In the case of `CSc1nccc(-c2c(CC(C)C)nn3ccccc23)n1` [Example 5, 2-Isobutyl-3-[2-(methylthio)pyrimidin-4-yl]pyrazolo[1,5-a]pyridine], the 50% inhibitory concentration (IC50) (usually the concentration needed to halve the response being measured) is 21 µM.
The same measure for `CC(C)NCc1nn2c(NC3CCCC3)cccc2c1-c1ccnc(NC2CCCC2)n1` [Example 26, N-Cyclopentyl-3-[2-(cyclopentylamino)-4-pyrimidinyl]-2-[(isopropylamino)methyl]pyrazolo[1,5-a]pyridin-7-amine]: over 2.5 µM; for `CCCc1nn2c(Cl)cccc2c1-c1ccnc(F)c1` [Example 3, 7-Chloro-3-(2-fluoropyridin-4-yl)-2-propylpyrazolo[1,5-a]pyridine]: 37 µM; for `COCCOCc1nn2c(NC3CCCC3)cccc2c1-c1ccnc(NC2CCCC2)n1` [Example 31, N-Cyclopentyl-3-[2-(cyclopentylamino)-4-pyrimidinyl]-2-[(2-methoxyethoxy)methyl]pyrazolo[1,5-a]pyridin-7-amine]: 1.5 µM.
The value for `CSc1nccc(-c2c(C3CC3)nn3ccccc23)n1` [Example 34, 2-Cyclopropyl-3-[2-(methylthio)pyrimidin-4-yl]pyrazolo[1,5-a]pyridine] was over 40 µM.
The value for `CCCc1nn2ccccc2c1-c1ccnc(F)c1` [Example 1, 3-(2-Fluoropyridin-4-yl)-2-propylpyrazolo[1,5-a]pyridine] was over 40 µM.
As for `COCc1nn2ccccc2c1-c1ccnc(NC2CCCC2)n1` [Example 20, N-Cyclopentyl-4-[2-(methoxymethyl)pyrazolo[1,5-a]pyridin-3-yl]-2-pyrimidinamine], the IC50 is 15 µM.
The value for `COCCOCc1nn2c(Cl)cccc2c1-c1ccnc(NC2CCCC2)n1` [Example 29, 4-{7-Chloro-2-[(2-methoxyethoxy)methyl]pyrazolo[1,5-a]pyridin-3-yl}-N-cyclopentyl-2-pyrimidinamine] was 23 µM; that for `CC(C)Cc1nn2c(NC3CCCC3)cccc2c1-c1ccnc(NC2CCCC2)n1` [Example 10, N-Cyclopentyl-3-[2-(cyclopentylamino)pyrimidin-4-yl]-2-isobutylpyrazolo[1,5-a]pyridin-7-amine] was 0.5 µM.
Regarding `c1ccc(Cc2nn3c(NC4CCCC4)cccc3c2-c2ccnc(NC3CCCC3)n2)cc1` [Example 19, N-{4-[2-Benzyl-7-(cyclopentylamino)pyrazolo[1,5-a]pyridin-3-yl]-2-pyrimidinyl}-N-cyclopentylamine], the IC50 stood at 0.8 µM.
The value for `CSc1cccc2c(-c3ccnc(NC4CCCC4)n3)c(CC(C)C)nn12` [Example 8, N-Cyclopentyl-4-[2-isobutyl-7-(methylthio)pyrazolo[1,5-a]pyridin-3-yl]pyrimidin-2-amine] was 3.8 µM; that for `c1ccn2nc(C3CC3)c(-c3ccnc(NC4CCCC4)n3)c2c1` [Example 35, N-Cyclopentyl-4-(2-cyclopropylpyrazolo[1,5-a]pyridin-3-yl)pyrimidin-2-amine] was 3.1 µM; that for `CC(C)c1nn2ccccc2c1-c1ccnc(NC2CCCC2)n1` [Example 32, N-Cyclopentyl-4-(2-isopropylpyrazolo[1,5-a]pyridin-3-yl)pyrimidin-2-amine] was 4.4 µM.
The value for `CSc1nccc(-c2c(C=O)nn3ccccc23)n1` [Example 12, 3-[2-(Methylthio)pyrimidin-4-yl]pyrazolo[1,5-a]pyridine-2-carbaldehyde] was over 5 µM; that for `COCc1nn2c(SC)cccc2c1-c1ccnc(NC2CCCC2)n1` [Example 21, N-Cyclopentyl-4-[2-(methoxymethyl)-7-(methylsulfanyl)pyrazolo[1,5-a]pyridin-3-yl]-2-pyrimidinamine] was 4.6 µM; that for `CC(C)NCc1nn2ccccc2c1-c1ccnc(NC2CCCC2)n1` [Example 25, N-Cyclopentyl-4-{2-[(isopropylamino)methyl]pyrazolo[1,5-a]pyridin-3-yl}-2-pyrimidinamine] was 27 µM.
The value for `c1ccc(Cc2nn3ccccc3c2-c2ccnc(NC3CCCC3)n2)cc1` [Example 17, 4-(2-Benzylpyrazolo[1,5-a]pyridin-3-yl)-N-cyclopentyl-2-pyrimidinamine] was 2 µM; that for `O=C(c1ccccc1)c1nn2ccccc2c1-c1ccnc(NC2CCCC2)n1` [Example 15, {3-[2-(Cyclopentylamino)-4-pyrimidinyl]pyrazolo[1,5-a]pyridin-2-yl}(phenyl)methanone] was 7 µM.
